In US11584763B2, “Chromenopyridine derivatives as phosphatidylinositol phosphate kinase inhibitors” (HIBERCELL, INC., priority 2017, dated 2023):
pIC50: −log10 of the molar value.

Assays:
Format in all cases: biochemical
[1] = target: T1, PIP4K2B (Homo sapiens, UniProt P78356); assay: Trans-FI P kinase assay PIP4K2B (PIP4KtypeIIB inhibition assay); details: compounds listed under IC50 bin headings; 100 uM GTP; read-out: Trans-FI P kinase assays: PIP4K2B IC50
T1 construct: made in house; host or cells: E. coli
T1 sequence (P78356 1-416): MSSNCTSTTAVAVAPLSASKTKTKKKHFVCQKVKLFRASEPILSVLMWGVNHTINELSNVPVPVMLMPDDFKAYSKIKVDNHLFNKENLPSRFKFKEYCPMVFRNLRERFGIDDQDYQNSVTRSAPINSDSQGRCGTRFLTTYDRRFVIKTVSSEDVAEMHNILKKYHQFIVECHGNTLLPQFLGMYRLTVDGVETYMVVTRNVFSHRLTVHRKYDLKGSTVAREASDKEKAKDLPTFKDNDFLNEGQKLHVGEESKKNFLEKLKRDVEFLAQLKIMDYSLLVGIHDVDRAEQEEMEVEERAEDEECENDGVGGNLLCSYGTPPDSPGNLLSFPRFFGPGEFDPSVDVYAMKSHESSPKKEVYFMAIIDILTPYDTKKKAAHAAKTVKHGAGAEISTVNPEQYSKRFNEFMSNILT
In short: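 GST-tagged human PIP4K2B (5 nM, E. coli-expressed) preincubated 1 h at 27 C with compound (top 4.8 uM, 5% DMSO), then reacted 2 h with 100 uM GTP and 80 uM PI5P/DOPE vesicles in HEPES pH 7.3, MgCl2, Triton X-100. GDP detected by Transcreener FI fluorescence via calibration curve; IC50 from % activity vs log[inhibitor].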

[2] = target: T2, PIP4K 2A (Homo sapiens, UniProt P48426); assay: Kinase Assay PIP4K2 A (PIP4KtypeIIA inhibition assay); design: made in house; host or cells: E. coli; details: compounds listed under IC50 bin headings
T2 sequence (P48426 1-406): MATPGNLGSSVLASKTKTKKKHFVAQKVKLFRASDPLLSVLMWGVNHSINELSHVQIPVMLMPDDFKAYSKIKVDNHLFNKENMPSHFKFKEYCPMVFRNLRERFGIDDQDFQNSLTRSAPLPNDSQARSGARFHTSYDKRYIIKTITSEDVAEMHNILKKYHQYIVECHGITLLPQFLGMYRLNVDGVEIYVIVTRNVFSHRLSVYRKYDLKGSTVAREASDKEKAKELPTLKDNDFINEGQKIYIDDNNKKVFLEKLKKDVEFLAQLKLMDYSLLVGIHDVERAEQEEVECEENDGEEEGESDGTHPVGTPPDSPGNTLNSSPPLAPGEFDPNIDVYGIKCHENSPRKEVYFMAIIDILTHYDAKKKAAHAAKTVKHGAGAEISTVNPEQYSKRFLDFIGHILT
In short: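 GST-tagged enzyme from E. coli at 0.5 nM final was preincubated with compound for 1 h at 27 C, then reacted with 10 uM ATP, 80 uM PI5P and DOPE carrier in 50 mM HEPES pH 7.3, 5% DMSO. After 1 h, ADP was measured by ADP-Glo luminescence against a calibration curve. IC50 was fitted from % residual activity.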

[3] = target: T2, PIP4K 2A; assay: ADP-glo kinase assay PIP4K 2A; design: 4 nM PIP4K2A (full length protein, SignalChem); purchased SignalChem; details: compounds listed under IC50 bin headings
In short: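 Full-length PIP4K2A was pre-incubated 15 min at RT with compound in 20 mM MOPS pH 7.2, 25 mM MgCl2, 0.005% Tween 20. The enzyme mix held 4 nM kinase and 100 μM PI(5)P diC8, and ATP was added from a 60 μM solution. After 1 h at RT, ADP-Glo luminescence gave % inhibition versus DMSO, fitted to IC50 over 10 threefold dilutions.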

Structure (SMILES) | pIC50 [1] | pIC50 [2] | pIC50 [3]
O=C1CCCN1c1ccc2c(c1)OCc1c(-c3ccncc3)cncc1-2 [Example 202, 1-(4-(pyridin-4-yl)-5H-chromeno[4,3-c]pyridin-8-yl)pyrrolidin-2-one] | < 6.00 | 6.00 to 7.00 | < 6.00
CC1Oc2cc(N3CCCC3=O)ccc2-c2cnc(Nc3cnc4c(c3)NC(=O)CO4)cc21 (stereo not drawn) [Example 93, 7-((5-methyl-8-(2-oxopyrrolidin-1-yl)-5H-chromeno[4,3-c]pyridin-3-yl)amino)-1H-pyrido[2,3-b][1,4]oxazin-2(3H)-one] | 6.00 to 7.00 | 8.00 to 9.00 | 7.00 to 8.00
CC1Oc2cc(N3CCCC3=O)ccc2-c2cnc(Nc3cncc(F)c3)cc21 (stereo not drawn) [Example 50, 1-(3-((5-fluoropyridin-3-yl)amino)-5-methyl-5H-chromeno[4,3-c]pyridin-8-yl)pyrrolidin-2-one] | < 6.00 | 8.00 to 9.00 | 7.00 to 8.00
CC1Oc2cc(N3CCCC3=O)ccc2-c2cnc(Nc3cncc(S(C)(=O)=O)c3)cc21 (stereo not drawn) [Example 91, 1-(5-methyl-3-((5-(methylsulfonyl)pyridin-3-yl)amino)-5H-chromeno[4,3-c]pyridin-8-yl)pyrrolidin-2-one] | < 6.00 | 7.00 to 8.00 | 7.00 to 8.00
CC1Oc2cc(N3CCCC3=O)ccc2-c2cnc(Nc3cnc4c(c3)N(S(C)(=O)=O)CCO4)cc21 (stereo not drawn) [Example 49, 1-(5-methyl-3-((1-(methylsulfonyl)-2,3-dihydro-1H-pyrido[2,3-b][1,4]oxazin-7-yl)amino)-5H-chromeno[4,3-c]pyridin-8-yl)pyrrolidin-2-one] | 6.00 to 7.00 | ≥ 9.00 | 8.00 to 9.00
CC1c2cc(Nc3cccnc3)ncc2-c2ccc(N3CCCC3=O)cc2N1C (stereo not drawn) [Example 43, 1-(5,6-dimethyl-3-(pyridin-3-ylamino)-5,6-dihydrobenzo[c][2,6]naphthyridin-8-yl)pyrrolidin-2-one] | < 6.00 | 7.00 to 8.00 | 7.00 to 8.00
CC1c2cc(Nc3cccnc3)ncc2-c2ccc(C(=O)N(C)C)cc2N1C (stereo not drawn) [Example 37, N,N,5,6-tetramethyl-3-(pyridin-3-ylamino)-5,6-dihydrobenzo[c][2,6]naphthyridine-8-carboxamide] | 6.00 to 7.00 | 8.00 to 9.00 | 7.00 to 8.00
CC1Oc2cc(N3CCCC3=O)ccc2-c2cnc(Nc3cncc(OC(F)F)c3)cc21 (stereo not drawn) [Example 41, 1-(3-((5-(difluoromethoxy)pyridin-3-yl)amino)-5-methyl-5H-chromeno[4,3-c]pyridin-8-yl)pyrrolidin-2-one] | < 6.00 | 8.00 to 9.00 | 7.00 to 8.00
CC1Oc2cc(N3CCCC3=O)ccc2-c2cnc(Nc3cccnc3)cc21 (stereo not drawn) [Example 38, 1-(5-methyl-3-(pyridin-3-ylamino)-5H-chromeno[4,3-c]pyridin-8-yl)pyrrolidin-2-one] | 6.00 to 7.00 | 8.00 to 9.00 | 8.00 to 9.00

Continued, values first:

pIC50 [1] | pIC50 [2] | pIC50 [3] | Structure (SMILES)
7.00 to 8.00 | 8.00 to 9.00 | 8.00 to 9.00 | COc1ncc(Nc2cc3c(cn2)-c2ccc(N4CCCC4=O)cc2OC3C)cc1NS(C)(=O)=O (stereo not drawn) [Example 88, N-(2-methoxy-5-((5-methyl-8-(2-oxopyrrolidin-1-yl)-5H-chromeno[4,3-c]pyridin-3-yl)amino)pyridin-3-yl)methanesulfonamide]
8.00 to 9.00 | ≥ 9.00 | ≥ 9.00 | COC(=O)N1CCOc2ncc(Nc3cc4c(cn3)-c3ccc(C(=O)N(C)C)cc3OC4C)cc21 (stereo not drawn) [Example 69, methyl 7-((8-(dimethylcarbamoyl)-5-methyl-5H-chromeno[4,3-c]pyridin-3-yl)amino)-2,3-dihydro-1H-pyrido[2,3-b][1,4]oxazine-1-carboxylate]
7.00 to 8.00 | ≥ 9.00 | 8.00 to 9.00 | CC1c2cc(Nc3cnc4c(c3)N3C(=O)CC[C@H]3CO4)ncc2-c2ccc(N3CCCC3=O)cc2N1C (stereo partly drawn) [Example 44, (6aS)-2-((5,6-dimethyl-8-(2-oxopyrrolidin-1-yl)-5,6-dihydrobenzo[c][2,6]naphthyridin-3-yl)amino)-6,6a,7,8-tetrahydro-9H-pyrido[2,3-b]pyrrolo[1,2-d][1,4]oxazin-9-one]
7.00 to 8.00 | ≥ 9.00 | 8.00 to 9.00 | CC(=O)N1CCOc2ncc(Nc3cc4c(cn3)-c3ccc(N5CCCC5=O)cc3OC4C)cc21 (stereo not drawn) [Example 42, 1-(3-((1-acetyl-2,3-dihydro-1H-pyrido[2,3-b][1,4]oxazin-7-yl)amino)-5-methyl-5H-chromeno[4,3-c]pyridin-8-yl)pyrrolidin-2-one]
8.00 to 9.00 | ≥ 9.00 | 8.00 to 9.00 | CN(C)C(=O)c1ccc2c(c1)OC(C1CC1)c1cc(Nc3cncc(N4CCCC4=O)c3)ncc1-2 (stereo not drawn) [Example 35, 5-cyclopropyl-N,N-dimethyl-3-((5-(2-oxopyrrolidin-1-yl)pyridin-3-yl)amino)-5H-chromeno[4,3-c]pyridine-8-carboxamide]
8.00 to 9.00 | ≥ 9.00 | ≥ 9.00 | CC1Oc2cc(C(=O)N(C)C)ccc2-c2cnc(Nc3cnc4c(c3)N(C(=O)C(C)(C)C)CCO4)cc21 (stereo not drawn) [Example 67, N,N,5-trimethyl-3-((1-pivaloyl-2,3-dihydro-1H-pyrido[2,3-b][1,4]oxazin-7-yl)amino)-5H-chromeno[4,3-c]pyridine-8-carboxamide]
7.00 to 8.00 | ≥ 9.00 | 8.00 to 9.00 | CC1Oc2cc(N3CCCC3=O)ccc2-c2cnc(Nc3cncc(N4CCNC4=O)c3)cc21 (stereo not drawn) [Example 55, 1-(5-((5-methyl-8-(2-oxopyrrolidin-1-yl)-5H-chromeno[4,3-c]pyridin-3-yl)amino)pyridin-3-yl)imidazolidin-2-one]
8.00 to 9.00 | ≥ 9.00 | ≥ 9.00 | CC(O)C(=O)N1CCOc2ncc(Nc3cc4c(cn3)-c3ccc(N5CCCC5=O)cc3OC4C)cc21 (stereo not drawn) [Example 60, 1-(3-((1-(2-hydroxypropanoyl)-2,3-dihydro-1H-pyrido[2,3-b][1,4]oxazin-7-yl)amino)-5-methyl-5H-chromeno[4,3-c]pyridin-8-yl)pyrrolidin-2-one]
7.00 to 8.00 | ≥ 9.00 | 8.00 to 9.00 | CC1Oc2cc(N3CCCC3=O)ccc2-c2cnc(Nc3cncc(NC(=O)c4cccc(N)c4)c3)cc21 (stereo not drawn) [Example 106, 3-amino-N-(5-((5-methyl-8-(2-oxopyrrolidin-1-yl)-5H-chromeno[4,3-c]pyridin-3-yl)amino)pyridin-3-yl)benzamide]
8.00 to 9.00 | ≥ 9.00 | ≥ 9.00 | CC1Oc2cc(N3CCCC3=O)ccc2-c2cnc(Nc3cnc4c(c3)N(C(=O)C3CC3)CCO4)cc21 (stereo not drawn) [Example 82, 1-(3-((1-(cyclopropanecarbonyl)-2,3-dihydro-1H-pyrido[2,3-b][1,4]oxazin-7-yl)amino)-5-methyl-5H-chromeno[4,3-c]pyridin-8-yl)pyrrolidin-2-one]
7.00 to 8.00 | ≥ 9.00 | 8.00 to 9.00 | CC1Oc2cc(N3CCCC3=O)ccc2-c2cnc(Nc3cncc(NC(=O)NCc4ccccc4)c3)cc21 (stereo not drawn) [Example 103, 1-benzyl-3-(5-((5-methyl-8-(2-oxopyrrolidin-1-yl)-5H-chromeno[4,3-c]pyridin-3-yl)amino)pyridin-3-yl)urea]
7.00 to 8.00 | ≥ 9.00 | 8.00 to 9.00 | CC1Oc2cc(N3CCCC3=O)ccc2-c2cnc(Nc3cnc4c(c3)N(S(=O)(=O)C(C)C)CCO4)cc21 (stereo not drawn) [Example 85, 1-(3-((1-(isopropylsulfonyl)-2,3-dihydro-1H-pyrido[2,3-b][1,4]oxazin-7-yl)amino)-5-methyl-5H-chromeno[4,3-c]pyridin-8-yl)pyrrolidin-2-one]
